This note sets out measurements from patent publication US4107424A, “1-N-[(S)-α-hydroxy-ω-aminoacyl] derivatives of 3',4'-dideoxykanamycin B and 3'-deoxykanamycin B antibiotics” (Zaidan Hojin Biseibutsu Kagaku Kenkyu Kai, priority 1972, dated 1978).

Broadly, the LD50 is the dose expected to kill half of the subjects tested. Low values mean a more toxic substance, high ones a less toxic substance.

In data set [1] the test system is Pseudomonas aeruginosa GN 315. The experiment in a line: Minimal inhibitory concentration, agar dilution streak method. Type of data set: cell-based. Conditions: GN315, nutrient agar, 37° C, 18 hours, drug-resistant strain, read-out: minimum inhibitory concentrations. As for the experimental part: (§1) *Agar Agar dilution streak method (nutrient agar, 37° C, 18 hours)
(§2) *Agar dilution streak method (nutrient agar, 37° C, 18 hours).

Data set [2] concerns Escherichia coli K-12 LA 290 R 55. Described as above. Type of data set: cell-based. The conditions noted are these: 18 h, read-out: minimum inhibitory concentrations. Here is the method:
as §1, §2

The test system of data set [3] is Escherichia coli K-12 JR 66/W 677. The description is as above. Type of data set: cell-based. The conditions noted are these: Escherichia coli, 18 h, read-out: minimum inhibitory concentrations. As for the experimental part: as §1, §2
The subject of data set [4] is Escherichia coli K-12 ML 1629. Described as above. The data set is classed as cell-based. Conditions: K12ML1629, nutrient agar, 37° C, 18 hours, drug-resistant strain, read-out: minimum inhibitory concentrations. As for the experimental part:
as §1, §2

In the next data set the test system is mice. The experiment in a line: Acute intravenous toxicity (LD50) in mice. The conditions noted are these: in words.
In data set [5] the test system is Pseudomonas aeruginosa A 3. The experiment in a line: Minimal inhibitory concentration, agar dilution streak method. The data set is classed as cell-based. Conditions: A3, nutrient agar, 37° C, 18 hours, read-out: minimum inhibitory concentrations. Here is the method: as §1, §2
Data set [6] concerns Pseudomonas aeruginosa No.12. Described as above. Type of data set: cell-based. Conditions: nutrient agar, 37° C, 18 hours, read-out: minimum inhibitory concentrations. Here is the method:
as §1, §2

Data set [7] deals with Escherichia coli K-12 W 677. The description is as above. Type of data set: cell-based. The conditions noted are these: K12W677, nutrient agar, 37° C, 18 hours, read-out: minimum inhibitory concentrations. As for the experimental part:
as §1, §2

Data set [8] concerns Escherichia coli K-12 ML 1410. The data set is described as above. The data set is classed as cell-based. Conditions: K12ML1410, nutrient agar, 37° C, 18 hours, read-out: minimum inhibitory concentrations. Here is the method:
as §1, §2

The test system of data set [9] is Staphylococcus aureus FDA 209P. Described as above. The data set is classed as cell-based. The conditions noted are these: FDA209P, nutrient agar, 37° C, 18 hours, read-out: minimum inhibitory concentrations. Here is the method: as §1, §2
The subject of data set [10] is gram-positive and gram-negative bacteria. As to the kind of experiment: Antibacterial activity (in words). Type of data set: cell-based. The conditions noted are these: for antibacterial activity compared with parent or reference substance: sensitive (and resistant) bacteria; for antibacterial activity: various gram-positive and gram-negative bacteria, including resistant strains. As for the experimental part: (§3) [α]D^22 + 38°, (c 0.85, water).

The next data set in a line: in vivo. Conditions: mouse, iv.
Data set [11] concerns Escherichia coli K-12 LA 290 R 64. As to the kind of experiment: Minimal inhibitory concentration, agar dilution streak method. Type of data set: cell-based. The conditions noted are these: nutrient agar, 37° C, 18 hours, read-out: minimum inhibitory concentrations. Here is the method: as §1, §2
Data set [12] deals with Escherichia coli K-12 ML 1410 R 81. The data set is described as above. Conditions: 18 h, read-out: minimum inhibitory concentrations. Type of data set: cell-based. Here is the method:
as §1, §2

Data set [13] deals with Pseudomonas aeruginosa TI-13. The description is as above. Type of data set: cell-based. The conditions noted are these: TI13, nutrient agar, 37° C, 18 hours, read-out: minimum inhibitory concentrations. As for the experimental part: as §1, §2
Data set [14] relates to Escherichia coli K-12 LA 290 R 56. Described as above. Type of data set: cell-based. Conditions: 18 h, read-out: minimum inhibitory concentrations. As for the experimental part:
as §1, §2

The test system of data set [15] is Escherichia coli K-12 ML 1630. Described as above. Type of data set: cell-based. Conditions: K12ML1630, nutrient agar, 37° C, 18 hours, read-out: minimum inhibitory concentrations. As for the experimental part:
as §1, §2

Another data set deals with Escherichia coli K-12. The data set is described as above. Type of data set: cell-based. Conditions: K12, nutrient agar, 37° C, 18 hours, read-out: minimum inhibitory concentrations. Here is the method:
as §1, §2

The test system of data set [16] is Pseudomonas aeruginosa 99. The data set is described as above. Type of data set: cell-based. Conditions: nutrient agar, 37° C, 18 hours, read-out: minimum inhibitory concentrations. As for the experimental part:
as §3, §1, §2

≈ marks a conversion by molar mass, not a printed value.

With `CNC[C@H]1O[C@H](O[C@H]2[C@H](O)[C@@H](O[C@H]3O[C@H](CO)[C@@H](O)[C@H](N)[C@H]3O)[C@H](N)C[C@@H]2N)[C@H](N)C[C@@H]1O` [3'-deoxy-6'-N-methylkanamycin B], the MIC in [1] worked out at 6.25 µg/mL (≈ 13 µM); in [2] it was 50 µg/mL (≈ 104 µM); in data set [3], 50 µg/mL (≈ 104 µM); in data set [4], 1.56 µg/mL (≈ 3.24 µM).
As for `NC[C@H]1O[C@H](O[C@H]2[C@H](O)[C@@H](O[C@H]3O[C@H](CO)[C@@H](O)[C@H](N)[C@H]3O)[C@H](N)C[C@@H]2N)[C@H](N)C[C@@H]1O` [3'-deoxykanamycin B], the MIC in data set [1] is 100 µg/mL (≈ 214 µM); in data set [2] it was 50 µg/mL (≈ 107 µM); in data set [3], 50 µg/mL (≈ 107 µM); in data set [4], 0.78 µg/mL (≈ 1.67 µM).
As to `NC[C@H]1O[C@H](O[C@H]2[C@H](O[C@@H]3O[C@H](CO)[C@@H](O)[C@H]3O)[C@@H](O)[C@H](N)C[C@@H]2N)[C@H](N)C[C@@H]1O` [3'-deoxyribostamycin], the MIC in data set [1], in data set [2], in data set [3] and in data set [4] was above 100 µg/mL throughout.
On to `NCC[C@H](O)C(=O)N[C@@H]1C[C@H](N)[C@@H](O[C@H]2O[C@H](CN)[C@@H](O)C[C@H]2N)[C@H](O)[C@H]1O[C@H]1O[C@H](CO)[C@@H](O)[C@H](N)[C@H]1O` [AHB-deoxykanamycin B, 1-N-[(S)-4-amino-2-hydroxybutyryl]-3'-deoxykanamycin B], for which the toxicity result in the data set on mice was “toxicity as low as that of their parent substances”. Moreover, the MIC was found to be 50 µg/mL (≈ 87.9 µM) in [1]; 0.78 µg/mL (≈ 1.37 µM) in data set [5]; 0.78 µg/mL (≈ 1.37 µM) in data set [6]; 0.78 µg/mL (≈ 1.37 µM) in data set [2]; 1.56 µg/mL (≈ 2.74 µM) in data set [7]; 3.12 µg/mL (≈ 5.49 µM) in data set [3]. The MIC in data set [8], in [9] and in [4] was 0.78 µg/mL (≈ 1.37 µM) in each case. In addition, in data set [10], the “antibacterial activity compared with parent or reference substance” value is “antibacterial activity as high as that of their parent substances”. For the same molecule, the antibacterial activity result in data set [10] is given as “high antibacterial activity against the kanamycin-resistant strains”. This molecule also showed an LD50 in the data set “in vivo” above 100 mg/kg.
Take `NCC[C@H](O)C(=O)N[C@@H]1C[C@H](N)[C@@H](O[C@H]2O[C@H](CN)[C@@H](O)C[C@H]2N)[C@H](O)[C@H]1O` [AHB-deoxyneamine, 1-N-[(S)-4-amino-2-hydroxybutyryl]-3'-deoxyneamine]: the toxicity result in the data set with mice was “toxicity as low as that of their parent substances”. Besides, the MIC in data set [1] is above 100 µg/mL; in [5], 6.25 µg/mL (≈ 15.3 µM); in data set [6], 6.25 µg/mL (≈ 15.3 µM); in data set [2] it was 6.25 µg/mL (≈ 15.3 µM); in data set [7], 6.25 µg/mL (≈ 15.3 µM); in [3] it was 6.25 µg/mL (≈ 15.3 µM). The MIC in data set [8] turned out to be 6.25 µg/mL (≈ 15.3 µM); in data set [9] it was 3.12 µg/mL (≈ 7.66 µM); in [4], 6.25 µg/mL (≈ 15.3 µM). For the same molecule, in data set [10], the “antibacterial activity compared with parent or reference substance” value is given as “antibacterial activity as high as that of their parent substances”. For the same molecule, the antibacterial activity entry in [10] is “high antibacterial activity against the kanamycin-resistant strains”. The LD50 in “in vivo” was above 100 mg/kg.
Take `NCC[C@H](O)C(=O)N[C@@H]1C[C@H](N)[C@@H](O[C@H]2O[C@H](CN)[C@@H](O)C[C@H]2N)[C@H](O[C@@H]2O[C@H](CO)[C@@H](O)[C@H]2O)[C@H]1O` [AHB-deoxyribostamycin, 1-N-[(S)-4-amino-2-hydroxybutyryl]-3'-deoxyribostamycin]: the toxicity entry with mice is listed as “toxicity as low as that of their parent substances”. The MIC was above 100 µg/mL in data set [1]; 1.56 µg/mL (≈ 2.89 µM) in data set [5]; 3.12 µg/mL (≈ 5.78 µM) in [6]; 1.56 µg/mL (≈ 2.89 µM) in data set [2]; 0.78 µg/mL (≈ 1.45 µM) in data set [7]; 3.12 µg/mL (≈ 5.78 µM) in [3]. For the same molecule, the MIC turned out to be 0.78 µg/mL (≈ 1.45 µM) in data set [8], 1.56 µg/mL (≈ 2.89 µM) in data set [9] and 1.56 µg/mL (≈ 2.89 µM) in data set [4]. In data set [10], the “antibacterial activity compared with parent or reference substance” value was “antibacterial activity as high as that of their parent substances”. In [10], the antibacterial activity entry was “high antibacterial activity against the kanamycin-resistant strains”. Further, in “in vivo”, the LD50 was above 100 mg/kg.
Regarding `NCC[C@H](O)C(=O)N[C@@H]1C[C@H](N)[C@@H](O[C@H]2O[C@H](CN)CC[C@H]2N)[C@H](O)[C@H]1O[C@H]1O[C@H](CO)[C@@H](O)[C@H](N)[C@H]1O` [AHB-dideoxykanamycin B, 1-N-[(S)-4-amino-2-hydroxy-n-butyryl]-3',4'-dideoxykanamycin B], in the data set on mice, the toxicity result is “toxicity as low as that of kanamycin”. Also, the MIC in data set [5] stood at 3.12 µg/mL (≈ 5.65 µM); in data set [11], 0.78 µg/mL (≈ 1.41 µM); in [12], 1.56 µg/mL (≈ 2.82 µM); in [13] it was 3.12 µg/mL (≈ 5.65 µM); in data set [6] it was 1.56 µg/mL (≈ 2.82 µM); in data set [14], 0.39 µg/mL (≈ 0.706 µM). Also, the MIC was determined as 0.78 µg/mL (≈ 1.41 µM) in data set [2]; 0.78 µg/mL (≈ 1.41 µM) in [15]; 0.78 µg/mL (≈ 1.41 µM) with Escherichia coli K-12; 0.39 µg/mL (≈ 0.706 µM) in data set [7]; 1.56 µg/mL (≈ 2.82 µM) in data set [3]; 0.78 µg/mL (≈ 1.41 µM) in data set [8]. Also, the MIC came to 0.78 µg/mL (≈ 1.41 µM) in data set [9], 0.78 µg/mL (≈ 1.41 µM) in data set [4] and 12.5 µg/mL (≈ 22.6 µM) in data set [16]. For the same molecule, in data set [10], the “antibacterial activity compared with parent or reference substance” value is “stronger antibacterial activity than those of kanamycin A and 3',4'-dideoxykanamycin B”. In addition, in data set [10], the antibacterial activity entry was “high antibacterial activity against drug-resistant strains such as Staphylococcus aureus, Escherichia coli and Pseudomonas aeruginosa strains which are resistant to kanamycin and DKB”. In “in vivo”, this molecule yielded an LD50 above 150 mg/kg.
Take `CNC[C@H]1O[C@H](O[C@H]2[C@H](O)[C@@H](O[C@H]3O[C@H](CO)[C@@H](O)[C@H](N)[C@H]3O)[C@H](NC(=O)[C@@H](O)CCN)C[C@@H]2N)[C@H](N)C[C@@H]1O` [AHB-methyldeoxykanamycin B, 1-N-[(S)-4-amino-2-hydroxybutyryl]-3'-deoxy-6'-N-methylkanamycin B]: the toxicity entry with mice is reported as “toxicity as low as that of their parent substances”. In addition, the MIC in [1] was 6.25 µg/mL (≈ 10.7 µM); in [5] it was 0.78 µg/mL (≈ 1.34 µM); in data set [6] it was 0.78 µg/mL (≈ 1.34 µM); in data set [2], 0.78 µg/mL (≈ 1.34 µM); in data set [7], 3.12 µg/mL (≈ 5.35 µM); in data set [3], 3.12 µg/mL (≈ 5.35 µM). In addition, the MIC in [8], in data set [9] and in [4] was 0.78 µg/mL (≈ 1.34 µM) each time. Further, the “antibacterial activity compared with parent or reference substance” value in [10] is “antibacterial activity as high as that of their parent substances”. The antibacterial activity result in data set [10] is listed as “high antibacterial activity against the kanamycin-resistant strains”. In the data set “in vivo”, this molecule showed an LD50 above 100 mg/kg.
